Source: patent US10004716B2, “Therapeutic/ preventive agent containing coumarin derivative as active ingredient” (NIPPON ZOKI PHARMACEUTICAL CO., LTD., priority 2014, dated 2018)

Columns and labels:
[1] = test system: type I collagen (Col 1) gene expression; test: Evaluation I: TGF-β-induced gene expression of fibrosis-related factors in NHLF cells: Col 1; format: cell-based, human; conditions: 25 μmol/L test substance 2 hours, then TGF-β 5 ng/mL 24 hours, n = 3
Procedure: (§1) NHLF cells were sown so as to make their amount 4×10^4 cells/well to each well of a 12-well plate and incubated to an extent of 80% confluent in a medium where fibroblast growth medium 2 supplement mix (FGM-2 SingleQuots, Lonza) was added to a fibroblast basal medium (FBM, Lonza). After that, incubation was conducted for 2 hours in a Dulbecco modified Eagle medium (DMEM) containing 25 μmol/L of a test substance and, after addition of […] growth factor (TGF)-β thereto so as to make its final concentration 5 ng/mL, incubation was carried out for 24 hours more.
(§2) QIAzol Lysis Reagent (QIAGEN) (1 mL) was added to the above to suspend, 200 μL of chloroform was added thereto followed by mixing and centrifugation (at 4° C. and 1500 rpm) was then conducted whereby the supernatant liquid was recovered. Total RNA was extracted and purified by treating the supernatant liquid with QIACube (QIAGEN) and RNeasy Micro Kit (QIAGEN). cDNA was prepared from the total RNA using Omniscript RT kit (QIAGEN) and Oligo(dT)12-18 Primer (Invitrogen).
(§3) Gene expression level of the fibrosis-related factors [connective tissue growth factor (CTGF), α-smooth muscle actin (SMA), fibronectin, endothelin and type I collagen (Col 1)] was measured by a conventional real time PCR method using a fluorescent dye SYBR GREEN I (Roche Diagnostics) by Light Cycler LC 480 (the same) using cDNA synthesized from the total RNA extracted in the above (2). A calibration curve was prepared by diluting the PCR product quantified by PicoGreen dsDNA Quantitation kit (Molecular probes) (a DNA quantitation kit) to an extent of 10^2˜10^7 copies/μL. From each of the resulting quantified values, copy numbers per 10000 copies of GAPDH gene being an internal standard were calculated.

[2] = test system: α-smooth muscle actin (SMA) gene expression; test: Evaluation I: TGF-β-induced gene expression of fibrosis-related factors in NHLF cells: α-SMA; format: cell-based, human; conditions: 25 μmol/L test substance 2 hours, then TGF-β 5 ng/mL 24 hours, n = 3
Procedure: as §1, §2, §3

IL-6 gene expression = test: Suppression of IL-1α-induced gene expression of inflammation-related factors in bovine cartilage pieces (real time PCR): IL-6; format: cell-based; conditions: 20 μmol/L test substance 2 hours, then IL-1α 3 ng/mL 8 hours, n = 3
Procedure: (§4) Each 6 to 8 cartilage pieces (diameter: 4 mm) of bovine metacarpophalangeal joint were placed into each well of a 24-well plate and incubated for one night in 1 mL of a basal medium in a CO2 incubator which was set at 37° C. and 5% by volume of CO2. After that, they were incubated for 2 hours in a basal medium containing 20 μmol/L of a test substance and, after addition of human recombinant IL-1α (3 ng/mL) thereto, they were incubated for 8 hours more. After completion of the incubation, the culture medium was discarded, an RNA stabilizer was added to the cartilage pieces, the mixture was incubated at 4° C. for one night and the cartilage pieces were finely cut using scissors, placed into micro-tubes and stored with freezing until the extraction of RNA therefrom.
(§5) The cartilage pieces placed in the micro-tubes were pulverized using Tissue Lyser (QIAGEN) (at 25 Hz for 5 minutes; for two times), 1 mL of QIAzol Lysis Reagent (QIAGEN) was added thereto to suspend, 200 μL of chloroform was added thereto followed by mixing and the mixture was centrifuged (1500 rpm at 4° C.) to recover the supernatant liquid. Total RNA was extracted and purified using QIACube (QIAGEN) and RNeasy Micro Kit (QIAGEN). cDNA was prepared from the total RNA using Omniscript RT Kit (QIAGEN) and Oligo(dT)12-18 Primer (Invitrogen).
(§6) The cDNA synthesized from the total RNA extracted in the above (2) was used to measure the gene expression level of the inflammation-related factors [IL-1β, IL-6, COX-2 and iNOS (inducible nitric oxide synthase)] by a conventional real time PCR method using a fluorescent dye SYBR GREEN I (Roche Diagnostics) by a Light Cycler LC 480 (the same). A calibration curve was prepared by dilution of a PCR product quantified by a DNA quantitation kit (PicoGreen dsDNA Quantitiation Kit (Molecular Probes)) to an extent of 10^2˜10^7 copies/μL. From each of the resulting measured data, copy numbers per 10000 copies of glyceroaldehyde-3-phosphate dehydrogenase (GAPDH) which was an internal standard were calculated.

NF-κB = test: Suppressive action to NF-κB activation (luciferase reporter, HEK293T cells, TNF-α); format: cell-based, human; conditions: HEK293T cells with NF-κB reporter; test substance 25 μml/mL 1 hour, then TNF-α 10 ng/mL 5 hours; stimulated TNF-α = 100
Procedure: A preparation solution containing pGL4.32 [luc2P/NF-κB-RE/Hygrol] (Promega) which is an NF-κB reporter vector, pGL4.74 [hRluc/TK] (Promega) which is a control vector and Lipofectamine LTX (Life Technologies) which is a gene transfer agent was added to human embryo kidney cells (HEK293T cells) sown onto a […] whereupon there were prepared the cells which transiently express a reporter protein.
After 24 hours from the gene transfer, transient expression cells were peeled off by treating with trypsin, sown on a poly-lysine coated white 96-well plate and incubated for one night. The test substance was added to as to make its final concentration 25 μml/mL and, after pre-incubating for 1 hour, TNF-α was added thereto so as to make its final concentration 10 ng/mL followed by incubating for 5 hours more. The cells were dissolved and the activities of a firefly luciferase and a renilla luciferase were measured. Rate of the luminescent intensity by addition of each drug to the luminescent intensity by stimulation with TNF-α were calculated.

[3] = test system: connective tissue growth factor (CTGF) gene expression; test: Evaluation I: TGF-β-induced gene expression of fibrosis-related factors in NHLF cells: CTGF; format: cell-based, human; conditions: 25 μmol/L test substance 2 hours, then TGF-β 5 ng/mL 24 hours, n = 3
Procedure: as §1, §2, §3

IL-1β gene expression = test: Suppression of IL-1α-induced gene expression of inflammation-related factors in bovine cartilage pieces (real time PCR): IL-1β; format: cell-based; conditions: 20 μmol/L test substance 2 hours, then IL-1α 3 ng/mL 8 hours, n = 3
Procedure: as §4, §5, §6

COX-2 gene expression = test: Suppression of IL-1α-induced gene expression of inflammation-related factors in bovine cartilage pieces (real time PCR): COX-2; format: cell-based; conditions: 20 μmol/L test substance 2 hours, then IL-1α 3 ng/mL 8 hours, n = 3
Procedure: as §4, §5, §6

| Structure (SMILES) | Copy Numbers per 10000 Copies of GAPDH Col 1 [1] | Copy Numbers per 10000 Copies of GAPDH α-SMA [2] | Copy Numbers per 10000 Copies of GAPDH IL-6 (IL-6 gene expression) | Luminescent Intensity to Stimulated TNF-α (%) (NF-κB) | Copy Numbers per 10000 Copies of GAPDH CTGF [3] | Copy Numbers per 10000 Copies of GAPDH IL-1β (IL-1β gene expression) | Copy Numbers per 10000 Copies of GAPDH COX-2 (COX-2 gene expression) |
| --- | --- | --- | --- | --- | --- | --- | --- |
| O=c1oc2c(OS(=O)(=O)c3ccc(C(F)(F)F)cc3)cccc2cc1NS(=O)(=O)c1cccc(C(F)(F)F)c1 [Compound 57, 2-Oxo-3-[[3-(trifluoromethyl)phenyl]sulfonylamino]-chromen-8-yl 4-(trifluoromethyl)benzenesulfonate] | 9715.8 copies per 10000 copies of GAP | 1166.3 copies per 10000 copies of GAP | 7749.8 copies per 10000 copies of GAP | 7.5 | 8963.4 copies per 10000 copies of GAP | 144.8 copies per 10000 copies of GAP | 1420.8 copies per 10000 copies of GAP |
| O=c1oc2c(OS(=O)(=O)c3ccc(C(F)(F)F)cc3)cccc2cc1NS(=O)(=O)c1cccc(Br)c1 [Compound 58, 3-[(3-Bromophenyl)sulfonylamino]-2-oxochromen-8-yl 4-(trifluoromethyl)benzenesulfonate] | 5901.0 copies per 10000 copies of GAP | 826.9 copies per 10000 copies of GAP | 9346.3 copies per 10000 copies of GAP | 14.5 | 5020.5 copies per 10000 copies of GAP | 157.8 copies per 10000 copies of GAP | 982.3 copies per 10000 copies of GAP |
| O=c1oc2c(OS(=O)(=O)c3cccc(Br)c3)cccc2cc1NS(=O)(=O)c1cccc(C(F)(F)F)c1 [Compound 60, 2-Oxo-3-[[3-(trifluoromethyl)phenyl]sulfonylamino]-chromen-8-yl 3-bromobenzenesulfonate] | 11388.1 copies per 10000 copies of GAP | 1324.8 copies per 10000 copies of GAP | 9277.4 copies per 10000 copies of GAP | 15.7 | 13992.0 copies per 10000 copies of GAP | 170.6 copies per 10000 copies of GAP | 920.6 copies per 10000 copies of GAP |
| O=c1oc2c(OS(=O)(=O)c3cccc(C(F)(F)F)c3)cccc2cc1NS(=O)(=O)c1ccc(C(F)(F)F)cc1 [Compound 68, 2-Oxo-3-[[4-(trifluoromethyl)phenyl]sulfonylamino]-chromen-8-yl 3-(trifluoromethyl)benzenesulfonate] | 8905.8 copies per 10000 copies of GAP | 1007.1 copies per 10000 copies of GAP | 16195.2 copies per 10000 copies of GAP | 16.1 | 10441.5 copies per 10000 copies of GAP | 175.1 copies per 10000 copies of GAP | 1655.9 copies per 10000 copies of GAP |
